Results reported in US6667037B1, “Isolated peptides which bind to HLA-B35 molecules, larger peptides which contain these, nucleic acid molecules encoding peptides, and uses thereof” (Ludwig Institute for Cancer Research, priority 1998, dated 2003).
Where a SMILES comes first, the peptide text is derived from it.

Experiments:
[1] = tested on: HA7-EBV cells (express HLA B*3501); experiment: 51Cr release assay: lysis of peptide-pulsed HA7-EBV cells by CTL 35-24; assay type: cell-based, human; settings: HA7-EBV cells (HLA B*3501)
Description: (§1) The same TNF assay as is described in example 2, supra, was used, except fragments of tyrosinase cDNA, rather than complete cDNA molecules, were used. Three fragments were positive, and these corresponded to nucleotides 1-1086, 427-1134, and 703-1134 of the coding region of tyrosinase cDNA. A fragment corresponding to position 574-831 was negative, leading to the conclusion that nucleotides 831-1086 encoded for the presented antigen. These correspond to amino acids 270-362 of tyrosinase, whose amino acid sequence is known. This amino acid sequence was compared to known peptides, which bind to HLA-B*3501, and its binding motif, as described by Rammensee, et al., supra, incorporated by reference. This reference describes a binding motif for HLA-B35 which is a nonapeptide, where Pro is found at position 2, and Tyr is found at position 9. For decapeptides, Ramensee, et al, gives P2 and Y10 as anchors. HLA-B*3501 was used because no information was found in the art for HLA-B*3503. Ramensee et al. also gives Phe, Met, Leu, and Ile as auxiliary anchors for P9. The peptide defined by amino acid sequence LPSSADVEF (SEQ ID NO: 1) satisfies these requisites, and is found at amino acids 312-320 of tyrosinase. […] The ^51Cr release was measured after 3.5 hours.

[2] = tested on: LG2-EBV cells (express HLA-B*3503); experiment: 51Cr release assay: lysis of peptide-pulsed LG2-EBV cells by CTL 35-24; assay type: cell-based, human; settings: LG2-EBV cells (HLA-B*3503)
Description: as §1

[3] = varying concentrations of peptide

Q: Which results are given for `CC(C)C[C@H](N)C(=O)N1CCC[C@H]1C(=O)N[C@@H](CO)C(=O)N[C@@H](CO)C(=O)N[C@@H](C)C(=O)N[C@@H](CC(=O)O)C(=O)N[C@H](C(=O)N[C@@H](CCC(=O)O)C(=O)N[C@@H](Cc1ccccc1)C(=O)O)C(C)C` [SEQ ID NO: 1, LPSSADVEF] (H-LPSSADVEF-OH; N-terminus and C-terminus assumed)?
A: EC50 ([1]; 30 minutes with peptide, then CTL 35-24, 51Cr release after 3.5 hours, read-out: dose of peptide giving half maximal lysis): ~10 nM; lysis of peptide-pulsed cells by CTL 35-24 [1, 3]: provoked lysis; EC50 ([2]; 30 minutes with peptide, then CTL 35-24, effector:target 5:1, 51Cr release after 3.5 hours, read-out: dose of peptide giving half maximal lysis): 1 nM; lysis of peptide-pulsed cells by CTL 35-24 [2, 3]: provoked lysis
